{
  "source": "patent US10273290B2",
  "about": "“Hydrocarbon double-stapled stabilized HIV-1 GP41 heptad repeat domain peptides” (DANA-FARBER CANCER INSTITUTE, INC., priority 2009, dated 2019)",
  "key": {"[1]": {"experiment": "Circular dichroism, α-helical content", "assay_type": "physicochemical", "details": "pH 2 versus pH 7", "outline": "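Far-UV CD spectra recorded at 20° C, 190-260 nm, 0.1 cm path, 10 accumulations. Percent α-helicity from mean residue ellipticity at 222 nm: 100×[θ]222/max[θ]222, with max[θ]222=−40,000×[1−(2.5/number of residues)]. Secondary-structure fractions also estimated by CDNN curve-fitting.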"}, "chymotrypsin": {"target": "T1, chymotrypsin (Bos taurus, UniProt P00766)", "T1 construct": "purchased Sigma", "experiment": "Protease resistance assay, chymotrypsin (LC/MS)", "assay_type": "in vitro ADME", "details": "pH 7.4, 0.5 chymotrypsin, peptide 25 μM", "protocol": "The DAD signal was set to 280 nm with an 8 nm bandwidth and MSD set to scan mode with one channel at (M+2H)/2, +1 mass units and the other at (M+3H)/3, +1 mass units. Integration of each MSD signal yielded areas under the curve of >10^8 counts. Reaction samples were composed of 5 μL peptide in DMSO (1 mM stock) and 195 μL of buffer consisting of 50 mM phosphate buffer pH 7.4 containing 2 mM CaCl2. Upon injection of the 0 hr time point sample, 2 μL of 50 ng/μL chymotrypsin (Sigma) was added and the amount of intact peptide quantitated by serial injection over time. An internal control of acetylated tryptophan carboxamide at a concentration of 100 μM was used to normalize each MSD data point. A plot of MSD area versus time yielded an exponential decay curve and half-lives were determined by nonlinear regression analysis using Prism software (GraphPad)."}, "pepsin": {"system": "pepsin", "experiment": "Protease resistance assay, pepsin at pH 2", "outline": "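Peptide from a 1 mM DMSO stock was incubated with pepsin in its appropriate buffer. Intact peptide was quantified over time by serial LC-MS injections, normalized to a 100 μM acetylated tryptophan carboxamide internal standard. Half-life came from nonlinear regression of the exponential decay.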"}, "[2]": {"system": "HIV-1 strains HXBc2, ADA, and HXBc2P 3.2", "experiment": "Luciferase-based HIV-1 infectivity assay, three strains", "assay_type": "cell-based", "procedure": "Also the direct inhibitory activity of modified polypeptides and the antibodies targeted thereto can be quantified based upon their capacity to directly block HIV infection of CD4-positive and CCR5-expressing canine thymus cells. […] The identical experiment is performed with the amphotropic murine leukemia virus (AMLV), to monitor for any nonspecific effects of the modified polypeptides or antibodies.\n(§1) HIV-1 infectivity assays were performed using known methods (Madani et al., 2007 Inhibition of human immunodeficiency virus envelope glycoprotein-mediated single cell lysis by low-molecular-weight antagonists of viral entry. J Virol, 81: 532-538; and Si et al., 2001 Envelope glycoprotein determinants of neutralization resistance in a simian-human immunodeficiency virus (SHIV-HXBc2P 3.2) derived by passage in monkeys. J Virol, 75:4208-4218; both incorporated herein by reference). […] Virus-containing supernatants were harvested 24-30 hr after transfection, filtered, aliquoted, and stored at −80° C. Target cells were seeded at a density of 6×10^3 cells/well in 96-well plates 24 hours prior to infection. Cf2Th-CD4-CCR5 cells were used for infections by viruses with the ADA, YU2, and A-MLV envelope glycoproteins, and Cf2Th-CD4-CXCR4 cells used for HXBc2, HXBc2P 3.2, and A-MLV. On the day of infection, the structured peptides (0-3 μM) were added to recombinant viruses (10,000 RT units) to a final volume of 50 μL and incubated at 37° C. for 30 min. Media was then removed and the target cells incubated with virus-peptide mixture for 48 hours at 37° C. The media was again removed and the cells lysed with 30 μL of passive lysis buffer (Promega) and three freeze-thaw cycles.\nRecombinant HIV-1 bearing the envelope glycoproteins from three distinct HIV-1 strains, HXBc2, ADA, and HXBc2P 3.2, and a negative control virus bearing the amphotropic murine leukemia virus (A-MLV) envelope glycoproteins, were evaluated."}, "[3]": {"experiment": "Pharmacokinetics in mice, intravenous or oral gavage", "assay_type": "in vivo, Male C57/BL6 mice", "procedure": "Peptides were incubated (5-10 μg) with mouse plasma at 37° C. or injected (10, mg/kg) by tail vein into male C57/BL6 mice. […] For ex vivo serum stability studies, peptide half-lives were calculated by nonlinear regression analysis of exponential decay curves plotted using Prism software (Graphpad). In vivo plasma concentrations at the indicated time points were used to calculate plasma half-life, peak plasma levels, total plasma clearance, and apparent volume of distribution using noncompartmental analysis.\nBlood samples withdrawn at 30 minutes by retro-orbital bleed were subjected to quantitation using LC/MS-based blood tests."}, "[4]": {"system": "HIV-1 HXBc2 virus bearing HR1 double mutations V38A/N42T and V38E/N42S", "experiment": "HIV-1 infectivity assay, enfuvirtide-resistant HR1 double mutants", "assay_type": "cell-based", "procedure": "as §1"}, "Chymotrypsin, pH 7": {"experiment": "Chymotrypsin, pH 7", "source_text": "Table printed on a drawing sheet, FIG. 17C\nTitle: Chymotrypsin, pH 7\nFirst reader's note: The table also serves as the legend of the plot of fraction intact over time; the line and marker symbols are left out."}},
  "note": "Entries after “also recorded” stand apart in the source; their conditions may differ. Bridge positions count the residues as written; N and C are the ends. Square brackets hold non-standard residues; d marks the D form. Peptide text beside a SMILES is read from it. S5 = C=CCCC[C@](C)(N)C(=O)O; Nle = CCCC[C@H](N)C(=O)O",
  "data": [
    {"smiles": "CCCC[C@H](NC(C)=O)C(=O)N[C@H](C(=O)N[C@@H](Cc1c[nH]c2ccccc12)C(=O)N[C@@]1(C)CCCC=CCCC[C@@](C)(C(=O)N[C@@H](CCC(=O)O)C(=O)N[C@H](C(=O)N[C@@H](CC(N)=O)C(=O)N[C@@H](CC(N)=O)C(=O)N[C@@H](Cc2ccc(O)cc2)C(=O)N[C@H](C(=O)N[C@@H](CO)C(=O)N[C@@H](CC(C)C)C(=O)N[C@H](C(=O)N[C@@H](Cc2c[nH]cn2)C(=O)N[C@@H](CO)C(=O)N[C@@H](CC(C)C)C(=O)N[C@H](C(=O)N[C@@H](CCC(=O)O)C(=O)N[C@@H](CCC(=O)O)C(=O)N[C@@H](CO)C(=O)N[C@@H](CCC(N)=O)C(=O)N[C@@H](CC(N)=O)C(=O)N[C@@H](CCC(N)=O)C(=O)N[C@@]2(C)CCCC=CCCC[C@@](C)(C(=O)N[C@@H](CCC(N)=O)C(=O)N[C@@H](CCC(=O)O)C(=O)N[C@@H](CC(C)C)C(=O)N[C@@H](CC(C)C)C(=O)N[C@@H](CCC(=O)O)C(N)=O)NC(=O)[C@H](CC(N)=O)NC(=O)[C@H](CCCCN)NC(=O)[C@H](CCC(=O)O)NC2=O)[C@@H](C)CC)[C@@H](C)CC)[C@@H](C)O)[C@@H](C)CC)NC(=O)[C@H](CC(=O)O)NC(=O)[C@H](Cc2c[nH]c3ccccc23)NC(=O)[C@H](CCC(=O)O)NC1=O)[C@@H](C)O", "note": "[SAH-gp41(626-662)(A, F)] (Ac-[Nle]TW[S5]EWD[S5]EINNYTSLIHSLIEESQNQ[S5]EKN[S5]QELLE-NH2; staple 4-8, 28-32; N-terminus and C-terminus assumed)", "values": [
      {"measurement": "α-helicity, in words", "setting": "[1]", "result": "even greater α-helicity at pH 2 than at pH 7"},
      {"measurement": "Half-Life", "setting": "chymotrypsin", "result": 5.02, "unit": "h"},
      {"measurement": "half-life at 25 μM", "setting": "pepsin; pepsin (isolated protease) in buffer, pH 2", "result": 34, "unit": "h"},
      {"measurement": "acid protease resistance, in words", "setting": "pepsin; pepsin at pH 2", "result": "striking acid protease resistance"},
      {"measurement": "anti-HIV-1 (anti-viral) activity, in words", "setting": "[2]", "result": "potent anti-viral activity"},
      {"measurement": "level measured in the blood, fold of unmodified peptide", "setting": "[3]; 10 mg/kg, blood samples at 30 minutes", "result": "more than 6 fold"},
      {"measurement": "in vivo stability, in words", "setting": "[3]; intravenous, 10 mg/kg, plasma concentrations of intact peptide", "result": "marked in vivo stability"},
      {"measurement": "fold decrease in clearance", "setting": "[3]; noncompartmental analysis", "result": "about 10 fold"},
      {"measurement": "fold enhancement in area under the curve (AUC)", "setting": "[3]; noncompartmental analysis, serial blood draws", "result": "about 10 fold"},
      {"measurement": "intact peptide in blood/plasma after oral administration", "setting": "[3]; oral gavage, 30 minutes after administration", "result": "measurable and dose-responsive levels; also recorded: measurable and dose-responsive plasma concentrations"},
      {"measurement": "functional activity against HR1 double-mutant HIV-1, in words", "setting": "[4]", "result": "dose-responsively suppressed HIV-1 infectivity"},
      {"measurement": "Half-Life", "setting": "Chymotrypsin, pH 7", "result": 5.58, "unit": "h"},
      {"measurement": "CL", "result": 1.0, "unit": "mL/min/kg"}
    ]}
  ]
}
